Test results: patent US20190211317A1, “PEPTIDES AND NANOPARTICLES FOR INTRACELLULAR DELIVERY OF GENOME-EDITING MOLECULES” (Aadigen, LLC, priority 2016, published 2019)
Several values for one entry are separate records, joined by “and”; a condition that tells them apart may be missing. Equal values may be shown once.

Columns and labels:
[1] = tested on: hPD1 gene in human T cells; test: Simultaneous delivery of CAR plasmid and CAS9/gRNA: hPD1 editing (T7E1); format: cell-based; settings: for mean indel frequency: two donors
Method: Cells were incubated for 5 min, then 300 μl of serum free RPMI-1640 medium was added. After 30 min, 1.2 mL of full medium was added and serum level was adjusted to 10%. As control, CAS9 loaded with gRNA targeting GFP was used. For comparison with electroporation methods, cells were transfected with the anti-CD-19 CAR plasmid (5 μg) and gRNA/CAS9 (5 μg/10 μg) using Nucleofector 2b (Lonza, Germany) with the Amaxa Human T cells Nucleofector Kit, VPA-1002 (Lonza, Germany).
On day 5, the level of transduced and untransduced cells was analyzed, and cells were transferred to fresh T cell expansion medium. The cultures were analyzed for viability and anti-CD19 CAR expression by flow cytometry. The expression of the anti-CD19 CAR in the T cells was evaluated by flow cytometry using a Protein L assay. […] 7-AAD (Sigma) was used to determine viability. CAS9-induced double-strand break followed by repair through NHEJ system was analyzed by either the T7E1 assay or using the Genome Cleavage Detection kit (GCD Thermo Fisher) and quantified using Fragment Analyzer System. The indel frequency in the target gene was quantified using the T7E1 assay. The cultures were expanded and analyzed for viability, anti-CD19 expression and PD I level every 10 days. T cell expansion medium contained AIM V medium, supplemented with 5% heat-inactivated human AB Serum, 1% Gluta-Max, and 300 IU/mL IL-2.

[2] = tested on: hPD1 gene in human T cells; test: hPD1 gene editing in primary human T cells (T7E1 assay); format: cell-based
Method: T cells were isolated from PBMCs (2 different donors) using anti-CD3/anti-CD28 antibodies bound to paramagnetic beads (Dynabeads ClinExVivo CD3/CD28, Invitrogen) at a ratio of 3:1 (beads:cells). The cells and beads were co-incubated for 2 hours at room temperature and CD3′ cell enrichment was performed using Dynal ClinExVIVO MPC magnet (Thermo Fisher). The anti-CD3/anti-CD28 paramagnetic beads were removed, washed and concentrated. Cells in the CD3′ fraction were resuspended in activation media at a concentration of 1×10^6 cells/ml with AIM-V medium (Thermo Fishers) supplemented with 10% fetal calf serum, 300 IU/ml IL2 and 50 ng/ml OKT3 (MuromonAB-CD3) for two days.
Cells were transfected by electroporation with CD-19 plasmid or gRNA/CAS9 (5 μg/10 μg) using a Nucleofector 2b (Lonza, Germany) with the Amaxa Human T cells Nucleofector Kit, VPA-1002 (Lonza, Germany). 5×10^6 cells were washed twice with DPBS by centrifuging at 800 rpm for 5 minutes and resuspended in 100 ^l transfection buffer, and then transferred into the electroporation cuvette. An optimized program selected for both high transfection and high efficiency on T cells was used. After electroporation, cells were resuspended in 500 ^l pre-warmed AIM-V medium containing 10% FBS and incubated at 37° C. in 5% CO2. The transfection efficiency was evaluated after 48 hr by flow cytometry or T7E1 assay.
As control, CAS9 loaded with gRNA targeting GFP was used.
Cells were returned to the incubator for 72 hours. CAS9-induced double-strand break followed by repair through non-homologous end joining (NHEJ) was analyzed by either the T7E1 assay or using the Genome Cleavage Detection kit (GCD Thermo Fisher) and quantified using Fragment Analyzer System. The indel frequency in the target gene was quantified using the T7E1 assay. The cultures were expanded and analyzed for viability and PD1 levels every 10 days. T cell expansion medium contained AIM V medium, supplemented with 5% heat-inactivated human AB Serum, 1% Gluta-Max, and 300 IU/mL IL-2.

[3] = tested on: endogenous hPD1 gene in JURKAT and K562 cells; test: hPD1 gene editing in T cell lines (T7E1 assay); format: cell-based, human
Method: CAS9 protein was preloaded with purified sgRNA at a molar ratio of 1:1 and incubated for 10 min prior to forming complexes with peptides.
5×10^6 cells were washed twice with DPBS by centrifuging at 800 rpm for 5 minutes and resuspended in 100 ^l transfection buffer, and then transferred into the electroporation cuvette. An optimized program selected for both high transfection and high efficiency on T cells was used. After electroporation, cells were resuspended in 500 ^l pre-warmed AIM-V medium containing 10% FBS and incubated at 37° C. in 5% CO2. The transfection efficiency was evaluated after 48 hr by flow cytometry or T7E1 assay.
RNAiMAX delivery method was used as positive control. Cells were either resuspended in or overlaid with 100 μl of preformed complexes, incubated for 3-5 min, and then 300 μl of DMEM was added. […] The indel frequency in the hPD1 gene was quantified using the T7E1 assay.

[4] = tested on: E-Catenin gene in mouse muscle myoblast cells (C2C12); test: ü-Catenin gene disruption in C2C12 myoblasts (PCR gel); format: cell-based; settings: undifferentiated and differentiated C2C12
Method: Cells were transfected with CAS9/gRNA (2.5 μM/5 μM) complexes associated with CPP (+) or not (−) at a molar ratio of 20:1 (peptide to complex) and compared to delivery by RNAiMAX for E-Catenin expression. ü-actin expression was included as a loading control.
(§1) […] Delivery by RNAiMAX was included as a positive control.
(§2) CAS9-induced NHEJ was analyzed 72 hours after transfection by PCR (FIG. 26) and T7E1 assay (FIG. 27). The deletion (indel) frequencies in the HPRT gene were quantified using a T7E1 assay by quantifying the amount of uncut vs cut DNA using a Fragment Analyzer System. Data for on-target mutations induced by RGEN/gRNA are reported as an average of 3 separate experiments
(§3) The cell line was maintained in 5% CO2 at 37° C. and cell viability was assessed by the Trypan Blue exclusion test. To induce myogenic differentiation, at about 80% cell confluence the medium containing 10% fetal calf serum was substituted with medium containing 1% fetal calf serum. The cells were transfected at the undifferentiated stage or at day 7 after differentiation.

primary human T cells = test: CAS9 protein expression in primary human T cells after CAS9 mRNA or plasmid delivery (ELISA); format: cell-based; settings: day 3
Method: T cells were isolated from PBMCs using anti-CD3/anti-CD28 antibodies bound to paramagnetic beads (Dynabeads ClinExVivo CD3/CD28, Invitrogen) at a ratio of 3:1 (beads:cells). The cells and beads were co-incubated for 2 hours at room temperature and CD3^+ cell enrichment was performed using Dynal ClinExVIVO MPC magnet (Thermo Fisher). The anti-CD3/anti-CD28 paramagnetic beads were removed, washed and concentrated. Cells in the CD3^+ fraction were resuspended in activation media at a concentration of 1×10^6 cells/ml with AIM-V medium (Thermo Fishers) supplemented with 10% fetal calf serum, 300 IU/ml IL2 and 50 ng/ml OKT3 (MuromonAB-CD3) for two days.
CPP/CAS9 complexes were formed by mixing the CAS9 mRNA (0.5 μg) with CPP at a 20:1 molar ratio of CPP:CAS9 mRNA and incubating for 30 min at 37° C. prior to cell transfection. CPP/CAS9-expressing plasmid complexes were formed by mixing the CAS9-expressing plasmid (Addgene MLM3639-Plasmid #42252) (0.5 μg) with CPP at a 20:1 molar ratio of CPP:plasmid and incubating for 30 min at 37° C. prior to cell transfection.
Cells were transfected according to the protocol for suspension cells described in Example 13a. RNAiMAX and lipofectamine 2000 lipid-based delivery methods (Invitrogen Thermo Fisher France) were used as controls, and transfections were performed following the manufacturer's instructions. CAS9 protein expression level was analyzed at multiple time points over a period of 10 days as determine by ELISA on protein extracts using antibodies against CRISPR/Cas9 obtained from Diagenode (Diagenode cat. No. C15200223) and ABCAM (clone 7A9-ab191468).

[5] = tested on: U2OS, HEPG2, K562 cells and primary human fibroblasts; test: CAS9 protein expression after CPP delivery of CAS9 mRNA (ELISA); format: cell-based; settings: day 3; cell types not specified
Method: CPP/CAS9 mRNA complexes were formed by mixing the CAS9 mRNA (0.5 μg) with CPP at a 20:1 molar ratio of CPP:CAS9 mRNA and incubating for 30 min at 37° C. prior to cell transfection. Cells were transfected according to optimized protocols for either adherent or suspension cell lines.
Human primary fibroblasts were freshly obtained and grown in flasks pre-coated with a gelatin-based coating solution and incubated in Culture Complete Growth Medium for 3 days before expansion and treatment. U2OS cells were cultured in Dulbecco's Modified Eagle's Medium (DMEM), supplemented with 2 mM glutamine, 1% antibiotics (streptomycin 10,000 μg/mL, penicillin, 10,000 IU/mL) and 10% (w/v) foetal calf serum (FCS), at 37° C. in a humidified atmosphere containing 5% CO2. 35 mm dishes seeded with 150,000 cells the day prior to transfection were grown to 50-60% confluence and set up to be at about 70% confluences at the time of transfection. Before transfection, cells were washed with DMEM (2×) followed by PBS (1×). Cells were then overlaid with 0.2 ml of complex solution (16 μl CPP/Cargo complex in water+184 μl OPTiMEM without antibiotics), mixed gently, and incubated for 10 min at 37° C. 0.8 mL of fresh OPTiMEM or DMEM was then added and cells were incubated for 20 min at 37° C. 2 mL of complete OPTiMEM (high glucose) or DMEM containing 11.4% FCS was then added in order to reach a final FCS concentration of 10%, without removing the overlay of CPP/Cargo complexes. Cells were returned to the incubator (37° C., 5% CO2) and assayed at 72 hours post transfection.
K562 and HEpG2 cells were set up to be at about 70% confluence at the time of transfection. The cells were maintained in high glucose DMEM media with 10% serum. Before transfection, cells were harvested by centrifugation, then washed with DMEM (2×) followed by PBS (1×). Cells were then resuspended in 0.2 ml of complex solution (16 μl CPP/Cargo complex in water+184 μl OPTiMEM without antibiotics), mixed gently, and incubated for 10 min at 37° C. 0.8 mL of fresh OPTiMEM was then added and cells were incubated for 20 min at 37° C. 2 mL of complete OPTiMEM (high glucose) containing 11.4% FCS was then added in order to reach a final FCS concentration of 10%, without removing the overlay of CPP/Cargo complexes. Cells were returned to the incubator (37° C., 5% CO2) and assayed at 72 hours post transfection.
RNAiMAX lipid-based delivery (Invitrogen Thermo Fisher France) was used as a control and transfections were performed following the manufacturer's instructions. CAS9 expression level was analyzed at multiple time points over a period of 10 days as determined by ELISA on protein extracts using antibodies against CRISPR/Cas9 obtained from Diagenode (Diagenode cat. No. C15200223) and ABCAM (clone 7A9-ab191468).

Swiss mice = settings: CAS9 protein 5 μg/VEPEP-3a 20:1; single i.v.; 12-72 hr
Method: Free CAS9 protein in physiological buffer was injected as a negative control, and administration of LPS was used as a positive control for cytokine activation. […] Serum cytokine levels were measured using The Cytokine Mouse Magnetic 20-Plex Panel from Invritrogen (LMC 0006M).

[6] = tested on: U2OS and HEPG2 cell lines and primary human fibroblasts; test: CAS9 protein expression after CPP delivery of CAS9-expressing plasmid (ELISA); format: cell-based; settings: U2OS, HEPG2, primary human fibroblasts; day 6; plasmid 0.5 μg
Method: CPP/plasmid complexes were prepared by mixing 0.5 μg of a CAS9-expressing plasmid (Addgene MLM3639-Plasmid #42252) with CPP at a 20:1 molar ratio of CPP:cargo and incubating for 30 min at 37° C. prior to cell transfection. Cells were transfected according to the protocols for adherent and suspension cells described in Example 13a. Lipofectamine 2000 was used as lipid-based delivery control. CAS9 protein expression level was analyzed at multiple time points over a period of 10 days as determined by ELISA on protein extracts using antibodies against CRISPR/Cas9 obtained from Diagenode (Diagenode cat. No. C15200223) and ABCAM (clone 7A9-ab191468).

[7] = Particle size, polydispersity and zeta potential with different cargoes (Zetasizer NANO ZS P); format: physicochemical; settings: 20:1
Method: The CPP/CAS9-protein, CPP/CAS9-protein/sgRNA, CPP/CAS9-mRNA, CPP/CAS-mRNA/sgRNA particles were characterized; the mean size, polydispersity, and zeta potential were measured with a Zetasizer NANO ZS P apparatus (Malvern Ltd).
The mean size and the polydispersity of the CCP/cargo complexes were determined at 25° C. for 5 min per measurement and zeta potential was measured with a Zetasizer NANO ZS P apparatus (Malvern Ltd).

JURKAT and K562 cells = test: Toxicity of CPP/CAS9/gRNA complexes in T cell lines (MTT assay); format: cell-based, human; settings: up to 100 nM, 24 h
Method: A total of 30,000 JURKAT or K562 cells seeded in 24-well plates the day prior to transfection were incubated with increasing concentrations of CPP/CAS9/gRNA complexed at 20:1 molar ratio (CPP to CAS9/gRNA) ranging from 1 nM to 200 nM for 30 min prior to addition of medium to reach a final 10% concentration of FCS. Cytotoxic response was measured 24 hours later by colorimetric MTT assay (Sigma, Germany). For MTT assay, cell culture medium was removed and replaced with PBS containing 2.5 mg/ml of MTT for 4 hours. Results correspond to the average of 3 independent experiments.

[8] = tested on: HPRT gene in mouse muscle myoblast cells (C2C12); test: HPRT gene editing in C2C12 myoblasts (T7E1 assay); format: cell-based
Method: as §1, §2, §3

[9] = Donor 1, CAS9/sgRNA 2.5 μg/5 μg
[10] = Donor 2, CAS9/sgRNA 2.5 μg/5 μg

Method for Primary T cells: The toxicity of CPP/CAS9/gRNA complexes was investigated in the two cell lines (JURKAT and K562) and in PBMC-isolated T cells. Cell viability was determined using either MTT assay or 7-AAD.
Data were normalized to untransfected cells and compared to T cells incubated with free CAS9/gRNA.

For `N=C(N)NCCC[C@H](NC(=O)[C@H](CCCNC(=N)N)NC(=O)[C@H](CCCCN)NC(=O)[C@H](CCCNC(=N)N)NC(=O)[C@@H]1CCCN1C(=O)[C@H](Cc1c[nH]c2ccccc12)NC(=O)[C@H](CCC(=O)O)NC(=O)[C@H](CCCNC(=N)N)NC(=O)[C@H](Cc1ccccc1)NC(=O)[C@H](Cc1c[nH]c2ccccc12)NC(=O)[C@H](CCCNC(=N)N)NC(=O)[C@H](CCC(=O)O)NC(=O)[C@H](Cc1ccccc1)NC(=O)[C@H](Cc1c[nH]c2ccccc12)NC(=O)[C@H](CCCCN)NC(=O)CCN)C(=O)O` [VEPEP-3a], which average viability (Primary T cells) is on record?
Its average viability is at least 80%.

What about the “Mean indel Frequency ± s.e.m” value [1, 9] of the same compound?
The value was 51 ± 5%.

What about the “Mean indel Frequency ± s.e.m” value ([1]; Donor 1, CAS9/sgRNA 5 μg/10 μg) of the same compound?
The value was 57 ± 2%.

And the “Mean indel Frequency ± s.e.m” value [1, 10]?
The value was 53 ± 5%.

What about the “Mean indel Frequency ± s.e.m” value ([1]; Donor 2, CAS9/sgRNA 5 μg/10 μg) of the same compound?
Its value is 58 ± 8%.

And the mean indel frequency ([1]; 2.5 μg/5 μg CAS9/gRNA)?
Its mean indel frequency is “approximately 50%”.

And the mean indel frequency ([1]; 5 μg/10 μg CAS9/gRNA)?
Its mean indel frequency is about 57%.

What about the “Mean indel Frequency ± s.e.m” value [2, 9] of the same compound?
The value was 62 ± 5%.

What about the “Mean indel Frequency ± s.e.m” value ([2]; Donor 1, CAS9/sgRNA 5 μg/10 μg) of the same compound?
The value was 65 ± 5%.

What about the “Mean indel Frequency ± s.e.m” value [2, 10] of the same compound?
Its value is 67 ± 8%.

What about the “Mean indel Frequency ± s.e.m” value ([2]; Donor 2, CAS9/sgRNA 5 μg/10 μg) of the same compound?
The value was 70 ± 5%.

What about the “mean indel frequency of hPD1 gene” value ([2]; T cells from the two donors, 5 μg/10 μg CAS9/gRNA) of the same compound?
Its value is 66%.

And the “Mean indel Frequency ± s.e.m” value ([3]; JURKAT, CAS9/sgRNA 2.5 μg/5 μg)?
The value was 72 ± 5%.

What about the “Mean indel Frequency ± s.e.m” value ([3]; JURKAT, CAS9/sgRNA 5 μg/10 μg) of the same compound?
Its value is 78% and 78 ± 7%.

What about the “Mean indel Frequency ± s.e.m” value ([3]; K562, CAS9/sgRNA 2.5 μg/5 μg) of the same compound?
Its value is 71 ± 6%.

And the “Mean indel Frequency ± s.e.m” value ([3]; K562, CAS9/sgRNA 5 μg/10 μg)?
Its value is 75% and 75 ± 6%.

And the “editing of ü-Catenin and HPRT genes” value [4]?
Its value is “robust editing”.

And the “ELISA signal for CAS9 protein expression” value (primary human T cells; CAS9-expressing plasmid 0.5 μg)?
The value was “little to no CAS9 expression”.

What about the “ELISA signal for CAS9 protein expression” value (primary human T cells; CAS9 mRNA 0.5 μg) of the same compound?
Its value is “little to no CAS9 expression”.

What about the “ELISA signal for CAS9 protein expression” value [5] of the same compound?
The value was “little to no increase”.

What about the non-specific cytokine induction (Swiss mice) of the same compound?
Its non-specific cytokine induction is “little to no impact”.

What about the “ELISA signal for CAS9 protein expression” value [6] of the same compound?
The value was “little to no increase”.

And the “formation of stable nanoparticles” value ([7]; with CAS9-protein and CAS9-protein/gRNA complex)?
Its value is “able to form stable nanoparticles”.

And the Mean diameter ([7]; with CAS9-protein and CAS9-protein/gRNA)?
The Mean diameter was “about 60 nm”.

And the toxicity (JURKAT and K562 cells)?
Its toxicity is “no toxicity”.

What about the mean indel frequency ([8]; differentiated C2C12) of the same compound?
Its mean indel frequency is 73%.

What about the mean indel frequency ([8]; undifferentiated C2C12, 5 μg/10 μg CAS9/gRNA, 20:1) of the same compound?
Its mean indel frequency is 81%.
